For five compounds, EC50 and Emax results are on record in patent publication US20230265151A1, “GIP/GLP1 CO-AGONIST COMPOUNDS” (priority 2020, published 2023).

One assay concerns the target hGLP-1R (Homo sapiens, UniProt P43220). In words: Functional cAMP formation (HTRF) in HEK-293 clonal cells expressing hGLP-1R, 0.1% bovine casein, without or with 1.0% human serum albumin. Type of assay: cell-based. On the set-up: expressed in transfected cells. The following applies: for EC50: cAMP, incubated at 37° C., 0.1% bovine casein (no human serum albumin), geometric mean; for Emax: HEK293, read-out: hGLP-1R Emax, % ± SEM, percent of maximal response to GLP-1(7-36)NH2, 37° C., 0.1% bovine casein, arithmetic mean. As to the method: After a 30-min incubation at 37° C., the resulting increase in intracellular cAMP is quantitatively determined using a CisBio cAMP Dynamic 2 HTRF Assay Kit (62AM4PEJ). Briefly, cAMP levels within the cell are detected by adding the cAMP-d2 conjugate in cell lysis buffer (10 µL) followed by the antibody anti-cAMP-Eu^3+-Cryptate, also in cell lysis buffer (10 µL). The resulting competitive assay is incubated for at least 60 min at room temperature, and then is detected using a PerkinElmer Envision® instrument with excitation at 320 nm and emission at 665 nm and 620 nm. Envision units (emission at 665 nm/620 nm* 10,000) are inversely proportional to the amount of cAMP present and are converted to nM cAMP per well us-ing a cAMP standard curve. […] A relative EC50 value and percent top (Emax) are derived by non-linear regression analysis using the percent maximal response vs. the concentration of peptide added, fitted to a four-parameter logistic equation.
(In general: Cyclic AMP is a second messenger, typically raised through Gs and lowered through Gi signalling.)

A further assay has as its target T1, hGCGR (Homo sapiens, UniProt P47871).
T1 construct: expressed in transfected cells
In words: Functional cAMP formation (HTRF) in HEK-293 clonal cells expressing hGCGR, 0.1% bovine casein, without or with 1.0% human serum albumin. Type of assay: cell-based. The note with it: cAMP, incubated at 37° C., 0.1% bovine casein (no human serum albumin), geometric mean. The gist of the method:
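Cells were stimulated with peptide for 30 min at 37° C, then intracellular cAMP was measured by competitive HTRF (665/620 nm ratio) and converted to nM using a cAMP standard curve. Relative EC50 and Emax came from four-parameter logistic fits of percent maximal response against peptide concentration.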

Like-named read-outs stand apart in the source and are kept apart here. Some results are limits rather than exact numbers.

T1 sequence (P47871 26-477): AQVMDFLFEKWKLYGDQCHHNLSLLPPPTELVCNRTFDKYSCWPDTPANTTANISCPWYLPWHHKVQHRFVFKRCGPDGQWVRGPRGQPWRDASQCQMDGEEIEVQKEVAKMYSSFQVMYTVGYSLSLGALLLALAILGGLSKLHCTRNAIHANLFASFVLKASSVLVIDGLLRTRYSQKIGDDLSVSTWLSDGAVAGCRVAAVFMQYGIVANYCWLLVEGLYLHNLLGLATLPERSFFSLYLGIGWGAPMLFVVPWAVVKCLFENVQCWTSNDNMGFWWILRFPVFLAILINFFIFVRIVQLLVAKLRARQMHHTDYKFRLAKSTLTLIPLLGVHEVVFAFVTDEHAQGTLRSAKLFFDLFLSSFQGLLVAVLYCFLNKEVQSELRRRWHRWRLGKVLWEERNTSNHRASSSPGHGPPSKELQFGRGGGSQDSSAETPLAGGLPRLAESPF
Chain of hGLP-1R (P43220 24-463): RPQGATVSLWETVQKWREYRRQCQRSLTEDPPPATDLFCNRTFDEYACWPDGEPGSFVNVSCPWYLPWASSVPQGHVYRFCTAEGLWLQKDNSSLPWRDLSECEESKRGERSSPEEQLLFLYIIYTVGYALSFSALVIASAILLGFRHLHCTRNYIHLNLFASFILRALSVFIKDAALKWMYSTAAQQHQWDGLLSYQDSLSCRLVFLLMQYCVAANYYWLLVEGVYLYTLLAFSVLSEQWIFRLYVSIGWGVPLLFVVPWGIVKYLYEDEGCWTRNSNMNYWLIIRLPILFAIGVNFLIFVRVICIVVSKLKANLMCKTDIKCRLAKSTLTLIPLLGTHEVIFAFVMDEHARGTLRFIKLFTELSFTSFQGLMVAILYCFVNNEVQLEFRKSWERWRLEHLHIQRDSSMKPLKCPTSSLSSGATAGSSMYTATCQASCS

In general, EC50 refers to the concentration giving half of the maximal effect. Regarding `CC[C@H](C)[C@H](NC(=O)[C@H](CCCN)NC(=O)[C@H](CC(=O)O)NC(=O)[C@H](CC(C)C)NC(=O)[C@](C)(CC(C)C)NC(=O)[C@@H](NC(=O)[C@H](CO)NC(=O)[C@H](CCCCNC(=O)COCCOCCNC(=O)COCCOCCNC(=O)CC[C@H](NC(=O)CCCCCCCCCCCCC(=O)O)C(=O)O)NC(=O)[C@H](CC(=O)O)NC(=O)[C@H](CO)NC(=O)[C@@H](NC(=O)[C@](C)(Cc1ccccc1F)NC(=O)[C@@H](NC(=O)CNC(=O)[C@H](CCC(=O)O)NC(=O)C(C)(C)NC(=O)[C@@H](N)Cc1ccc(O)cc1)[C@@H](C)O)[C@@H](C)O)[C@@H](C)CC)C(=O)N[C@@H](C)C(=O)N[C@@H](CCC(N)=O)C(=O)NC(C)(C)C(=O)N[C@@H](CCCCNC(=O)COCCOCCNC(=O)COCCOCCNC(=O)CC[C@H](NC(=O)CCCCCCCCCCCCC(=O)O)C(=O)O)C(=O)N[C@@H](Cc1ccccc1)C(=O)N[C@H](C(=O)N[C@H](CCC(=O)O)C(=O)N[C@@](C)(Cc1ccc(O)cc1)C(=O)N[C@@H](CC(C)C)C(=O)N[C@H](C(=O)N[C@@H](CCC(=O)O)C(=O)NCC(=O)NCC(=O)N1CCC[C@H]1C(=O)N[C@@H](CO)C(=O)N[C@@H](CO)C(=O)NCC(=O)N[C@@H](C)C(=O)N1CCC[C@H]1C(=O)N1CCC[C@H]1C(=O)N1CCC[C@H]1C(=O)N[C@@H](CO)C(N)=O)[C@@H](C)CC)[C@@H](C)CC` [Example 105], the EC50 at hGLP-1R (read-out: hGLP-1R EC50, nM (SEM, n)) is 0.52 nM; on hGCGR (read-out: hGCGR EC50, nM (SEM, n)), greater than 9950 nM.
Broadly, the Emax is the size of the effect at its maximum, as opposed to the concentration needed. With `CC[C@H](C)[C@H](NC(=O)[C@H](CC(C)C)NC(=O)[C@](C)(Cc1ccc(O)cc1)NC(=O)[C@H](CCCCNC(=O)[C@@H](N)CCCCNC(=O)CC[C@H](NC(=O)CCCCCCCCCCCCC(=O)O)C(=O)O)NC(=O)[C@@H](NC(=O)[C@H](Cc1ccccc1)NC(=O)[C@H](CCC(=O)O)NC(=O)C(C)(C)NC(=O)[C@H](CCC(N)=O)NC(=O)[C@H](C)NC(=O)[C@H](CCCCNC(=O)[C@@H](N)CCCCNC(=O)CC[C@H](NC(=O)CCCCCCCCCCCCC(=O)O)C(=O)O)NC(=O)[C@H](CCCN)NC(=O)[C@H](CC(=O)O)NC(=O)[C@H](CC(C)C)NC(=O)[C@](C)(CC(C)C)NC(=O)[C@@H](NC(=O)C(C)(C)NC(=O)[C@@H](NC(=O)[C@H](CC(=O)O)NC(=O)[C@H](CO)NC(=O)[C@@H](NC(=O)[C@](C)(Cc1ccccc1F)NC(=O)[C@@H](NC(=O)CNC(=O)[C@H](CCC(=O)O)NC(=O)C(C)(C)NC(=O)[C@@H](N)Cc1ccc(O)cc1)[C@@H](C)O)[C@@H](C)O)C(C)C)[C@@H](C)CC)[C@@H](C)CC)C(=O)N[C@@H](CCC(=O)O)C(=O)NCC(=O)NCC(=O)N1CCC[C@H]1C(=O)N[C@@H](CO)C(=O)N[C@@H](CO)C(=O)NCC(=O)N[C@@H](C)C(=O)N1CCC[C@H]1C(=O)N1CCC[C@H]1C(=O)N1CCC[C@H]1C(=O)N[C@@H](CO)C(N)=O` [Example 167], the Emax at hGLP-1R is 91.4 ± 3.21%. In addition, the EC50 is 0.217 nM at hGLP-1R (hGLP-1R EC50, nM (SEM, n)) and greater than 9950 nM at hGCGR (hGCGR EC50, nM (SEM, n)).
The like results for `CC[C@H](C)[C@H](NC(=O)[C@H](CC(C)C)NC(=O)[C@](C)(Cc1ccc(O)cc1)NC(=O)[C@@H](CCC(=O)O)NC(=O)[C@@H](NC(=O)[C@H](Cc1ccccc1)NC(=O)[C@H](CCC(=O)O)NC(=O)C(C)(C)NC(=O)[C@H](CCC(N)=O)NC(=O)[C@H](C)NC(=O)[C@H](CCCCNC(=O)COCCOCCNC(=O)COCCOCCNC(=O)CC[C@H](NC(=O)CCCCCCCCCOc1ccc(C(=O)O)cc1)C(=O)O)NC(=O)[C@H](CCCN)NC(=O)[C@H](CC(=O)O)NC(=O)[C@H](CC(C)C)NC(=O)[C@](C)(CC(C)C)NC(=O)[C@@H](NC(=O)[C@H](CO)NC(=O)[C@H](Cc1ccncc1)NC(=O)[C@H](CC(=O)O)NC(=O)[C@H](CO)NC(=O)[C@@H](NC(=O)[C@](C)(Cc1ccccc1F)NC(=O)[C@@H](NC(=O)CNC(=O)[C@H](CCC(=O)O)NC(=O)C(C)(C)NC(=O)[C@@H](N)Cc1ccc(O)cc1)[C@@H](C)O)[C@@H](C)O)[C@@H](C)CC)[C@@H](C)CC)C(=O)N[C@@H](CCCCNC(=O)COCCOCCNC(=O)COCCOCCNC(=O)CC[C@H](NC(=O)CCCCCCCCCOc1ccc(C(=O)O)cc1)C(=O)O)C(=O)NCC(=O)NCC(=O)N1CCC[C@H]1C(=O)N[C@@H](CO)C(=O)N[C@@H](CO)C(=O)NCC(=O)N[C@@H](C)C(=O)N1CCC[C@H]1C(=O)N1CCC[C@H]1C(=O)N1CCC[C@H]1C(=O)N[C@@H](CO)C(N)=O` [Example 129] were, in that order, 97.9%, 1.28 nM and greater than 9950 nM.
For `CC[C@H](C)[C@H](NC(=O)[C@H](CC(C)C)NC(=O)[C@](C)(Cc1ccc(O)cc1)NC(=O)[C@@H](CCC(=O)O)NC(=O)[C@@H](NC(=O)[C@H](Cc1ccccc1)NC(=O)[C@H](CCCCNC(=O)COCCOCCNC(=O)COCCOCCNC(=O)CC[C@H](NC(=O)CCCCCCCCCOc1ccc(C(=O)O)cc1)C(=O)O)NC(=O)C(C)(C)NC(=O)[C@H](CCC(N)=O)NC(=O)[C@H](C)NC(=O)[C@H](CCCCNC(=O)COCCOCCNC(=O)COCCOCCNC(=O)CC[C@H](NC(=O)CCCCCCCCCOc1ccc(C(=O)O)cc1)C(=O)O)NC(=O)[C@H](CCCN)NC(=O)[C@H](CC(=O)O)NC(=O)[C@H](CC(C)C)NC(=O)[C@](C)(CC(C)C)NC(=O)[C@@H](NC(=O)[C@H](CO)NC(=O)[C@H](Cc1ccncc1)NC(=O)[C@H](CC(=O)O)NC(=O)[C@H](CO)NC(=O)[C@@H](NC(=O)[C@](C)(Cc1ccccc1F)NC(=O)[C@@H](NC(=O)CNC(=O)[C@H](CCC(=O)O)NC(=O)C(C)(C)NC(=O)[C@@H](N)Cc1ccc(O)cc1)[C@@H](C)O)[C@@H](C)O)[C@@H](C)CC)[C@@H](C)CC)C(=O)N[C@@H](CCC(=O)O)C(=O)NCC(=O)NCC(=O)N1CCC[C@H]1C(=O)N[C@@H](CO)C(=O)N[C@@H](CO)C(=O)NCC(=O)N[C@@H](C)C(=O)N1CCC[C@H]1C(=O)N1CCC[C@H]1C(=O)N1CCC[C@H]1C(=O)N[C@@H](CO)C(N)=O` [Example 127], on hGLP-1R, the Emax was 98.5%. For the same compound, on hGCGR (hGCGR EC50, nM (SEM, n)), the EC50 is greater than 9950 nM.
For `CC[C@H](C)[C@H](NC(=O)[C@H](CC(C)C)NC(=O)[C@](C)(Cc1ccc(O)cc1)NC(=O)[C@H](CCCCNC(=O)COCCOCCNC(=O)COCCOCCNC(=O)CC[C@H](NC(=O)CCCCCCCCCCCCC(=O)O)C(=O)O)NC(=O)[C@@H](NC(=O)[C@](C)(Cc1ccccc1)NC(=O)[C@H](CCC(=O)O)NC(=O)C(C)(C)NC(=O)[C@H](CCC(N)=O)NC(=O)[C@H](C)NC(=O)[C@H](CCCCNC(=O)COCCOCCNC(=O)COCCOCCNC(=O)CC[C@H](NC(=O)CCCCCCCCCCCCC(=O)O)C(=O)O)NC(=O)[C@H](CCCN)NC(=O)[C@H](CC(=O)O)NC(=O)[C@H](CC(C)C)NC(=O)[C@](C)(CC(C)C)NC(=O)[C@@H](NC(=O)[C@H](CO)NC(=O)C1(NC(=O)[C@H](CC(=O)O)NC(=O)[C@H](CO)NC(=O)[C@@H](NC(=O)[C@](C)(Cc2ccccc2F)NC(=O)[C@@H](NC(=O)CNC(=O)[C@H](CCC(=O)O)NC(=O)C(C)(C)NC(=O)[C@@H](N)Cc2ccc(O)cc2)[C@@H](C)O)[C@@H](C)O)CCCC1)[C@@H](C)CC)[C@@H](C)CC)C(=O)N[C@@H](CCC(=O)O)C(=O)NCC(=O)NCC(=O)N1CCC[C@H]1C(=O)N[C@@H](CO)C(=O)N[C@@H](CO)C(=O)NCC(=O)N[C@@H](C)C(=O)N1CCC[C@H]1C(=O)N1CCC[C@H]1C(=O)N1CCC[C@H]1C(=O)N[C@@H](CO)C(N)=O` [Example 120], the EC50 is 1.43 nM at hGLP-1R (hGLP-1R EC50, nM (SEM, n)) and greater than 9950 nM on hGCGR (hGCGR EC50, nM (SEM, n)).
